Assay results reported in PubChem BioAssay (NCI).
Values joined by “and” are separate entries in the source; they are usually repeats but may differ in a detail not shown here. Identical values can stand only once.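 These data come from cells grown in 96-well plates and exposed to compound for 48 hours at five concentrations. At the GI50, growth is halved. TGI denotes the concentration required for complete inhibition of growth.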

Columns and labels:
Test in all cases: growth of human tumour cells (NCI), 48 h
HS 578T breast = tested on: HS 578T breast
RPMI-8226 leukemia = tested on: RPMI-8226 leukemia
MALME-3M melanoma = tested on: MALME-3M melanoma
MDA-MB-231 breast = tested on: MDA-MB-231 breast
OVCAR-3 ovarian = tested on: OVCAR-3 ovarian
SK-MEL-28 melanoma = tested on: SK-MEL-28 melanoma
U251 CNS = tested on: U251 CNS
PC-3 prostate = tested on: PC-3 prostate
NCI-H23 lung = tested on: NCI-H23 lung
SK-MEL-2 melanoma = tested on: SK-MEL-2 melanoma

SMILES	GI50 (HS 578T breast)	TGI (HS 578T breast)	GI50 (RPMI-8226 leukemia)	TGI (RPMI-8226 leukemia)	GI50 (MALME-3M melanoma)	TGI (MALME-3M melanoma)	GI50 (MDA-MB-231 breast)	TGI (MDA-MB-231 breast)	GI50 (OVCAR-3 ovarian)	TGI (OVCAR-3 ovarian)	GI50 (SK-MEL-28 melanoma)	TGI (SK-MEL-28 melanoma)	GI50 (U251 CNS)	TGI (U251 CNS)	GI50 (PC-3 prostate)	TGI (PC-3 prostate)	GI50 (NCI-H23 lung)	TGI (NCI-H23 lung)	GI50 (SK-MEL-2 melanoma)	TGI (SK-MEL-2 melanoma)
COc1cc2ncnc(Nc3ccc(F)c(Cl)c3)c2cc1NC(=O)/C=C/CN1CCCCC1	2.01 µM and 0.921 µM	19.6 µM and 5.6 µM	1.95 µM and 1.93 µM	5.11 µM and 4.99 µM	1.73 µM and 1.61 µM	3.31 µM and 3.09 µM	1.3 µM and 1.53 µM	3.2 µM and 4 µM	1.14 µM and 1.21 µM	2.45 µM and 3.24 µM	1.79 µM and 1.65 µM	3.36 µM and 3.14 µM	1.46 µM and 1.87 µM	3.26 µM and 4.27 µM	2.53 µM and 2.78 µM	10.5 µM and > 10 µM	2.65 µM and 2.54 µM	7.81 µM and > 8.79 µM	1.81 µM and 1.72 µM	3.52 µM and 3.39 µM
CN1C(=O)N(C)C2C1NN=c1s/c(=C\c3ccc(F)cc3)c(=O)n12 (stereo unspecified)	2.08 µM	7.31 µM	2.56 µM	8.91 µM	3.17 µM	> 100 µM	4.69 µM	> 100 µM	1.24 µM	8.09 µM	7.31 µM	> 100 µM	3.06 µM	> 100 µM	2.33 µM	> 100 µM	4.23 µM	> 100 µM	4.13 µM	> 100 µM
O=C1C(c2ccccc2)=[N+]([O-])c2ccccc21		82.9 µM		56.9 µM		38.5 µM		25.4 µM		29.1 µM		33.2 µM		28.7 µM		27.3 µM		36.6 µM		28.3 µM
O=c1cccc(C2CC(CO)C3CCCCN3C2)[nH]1 (stereo unspecified)		> 100 µM		> 100 µM				> 100 µM		> 100 µM		> 100 µM		> 100 µM		> 100 µM		> 100 µM		> 100 µM
CCN(CC)C(=S)Oc1cc2oc(=O)cc(C)c2cc1Cl		> 100 µM		> 100 µM				> 100 µM		> 100 µM		> 100 µM		> 100 µM		> 100 µM		> 100 µM		> 100 µM
COc1ccc(C2=NN(C=O)C(c3cccc(Nc4ccnc5cc(Cl)ccc45)c3)C2)cc1 (stereo unspecified)	3.92 µM	39.4 µM	1.36 µM	11.2 µM	2.04 µM	18.9 µM	4 µM	97 µM	1.97 µM	12.5 µM	8.12 µM	25.3 µM	2.77 µM	14.4 µM	2.87 µM	> 100 µM	1.87 µM	> 100 µM		
COc1cc(-c2cn(-c3ccc(Cl)c(Cl)c3)c(=O)n2C(C)=O)cc(OC)c1OC	6.16 µM	29.3 µM	10.5 µM	32.3 µM	15.3 µM	33.3 µM	10.4 µM	26.2 µM	14.9 µM	38.1 µM	11.6 µM	29.6 µM	8.86 µM	21.3 µM	4.3 µM	17.8 µM			10.6 µM	25.3 µM
Nc1ccccc1C#C/C=C\C#Cc1ccccc1			1.26 µM	10.7 µM			11.6 µM	26.8 µM	4.14 µM	14.8 µM	11.7 µM	27.1 µM	19.2 µM	46.9 µM	12.3 µM	54.1 µM	14.8 µM	35.9 µM	25.5 µM	98.3 µM
Fc1cc2[nH]ncc2c2c3c(c(-c4cn[nH]c4C(F)(F)F)nc12)C1CCC3C1 (stereo unspecified)	0.808 µM	2.67 µM	0.804 µM	3.54 µM	1.45 µM	4.85 µM	0.724 µM	3.45 µM	1.39 µM	4.87 µM	0.889 µM	2.84 µM	1.4 µM	5.09 µM			1.27 µM	6 µM	1.57 µM	4.2 µM
O=C(O)C1CCCCC1C(=O)O.[NH-]C1CCC1.[NH2-].[Pt+2] (stereo unspecified)	19.3 µM	57 µM			18.6 µM	38.6 µM	18.8 µM	38.2 µM	15.8 µM	30.4 µM	15.9 µM	31.4 µM	58 µM	> 100 µM	> 100 µM	> 100 µM	22.4 µM	> 100 µM	57.2 µM	> 100 µM
O=C1NC(=S)S/C1=C(/C=C(\CC(=O)c1ccccc1)c1ccc(Cl)cc1)c1ccccc1	42.3 µM	85.4 µM			39.9 µM	> 100 µM	25 µM	72.6 µM	24.2 µM	> 100 µM	61.9 µM	> 100 µM	30.9 µM	> 100 µM	25.8 µM	83.3 µM	21.8 µM	48.8 µM		
CN(C)CCCNC(=O)c1ccc2c(c1)oc1cc3ccccc3c(=O)n12			17.1 µM	> 50 µM	> 50 µM	> 50 µM	16.9 µM	> 50 µM	9.24 µM	23.9 µM	14.5 µM	29.3 µM	11.1 µM	22.8 µM	31.7 µM	> 50 µM	35.4 µM	> 50 µM	9.3 µM	32.6 µM
Cc1nc2sccn2c1-c1csc(Nc2cccc(Cl)c2C)n1	4.56 µM	51.2 µM	3.83 µM	33.3 µM			3.62 µM	20.2 µM	5.23 µM	32.2 µM	5.67 µM	44.1 µM	4.37 µM	19.6 µM	3.72 µM	87.3 µM			3.78 µM	14 µM
COC(=O)[C@]12CCC(C)[C@H](C)[C@H]1C1=CCC3[C@@]4(C)CC[C@H](OC(C)=O)C(C)(C)C4CC[C@@]3(C)C1(C)C(O)C2 (stereo partly specified)				> 100 µM		> 100 µM				> 100 µM		> 100 µM		> 100 µM				> 100 µM		> 100 µM
CCCCN(CCCC)c1c([N+](=O)[O-])c(=O)nc2ccccn12				> 100 µM		> 100 µM				> 100 µM		54 µM		> 100 µM				> 100 µM		> 100 µM
Cc1cc(S(=O)(=O)NC#N)c(S/C(=N\Nc2ccc([N+](=O)[O-])cc2)c2ccc(Cl)cc2)cc1Cl	17.2 µM	58 µM	30.5 µM	> 100 µM	24.4 µM	96.3 µM			21.2 µM	> 100 µM	31.2 µM	> 100 µM	48.2 µM	> 100 µM	33.6 µM	> 100 µM	77.9 µM	> 100 µM	> 100 µM	> 100 µM
COc1ccc(/C=C2\CCCC(C(NO)c3ccc(OC)cc3)C2=NO)cc1 (stereo unspecified)				> 100 µM		> 100 µM				> 100 µM		95.3 µM		> 100 µM				> 100 µM		> 100 µM
Cc1c(C(=O)NCCN2CCOCC2)cn2ncnc(Oc3ccc(NC(=O)Nc4ccc(Cl)c(C(F)(F)F)c4)cc3)c12	1.48 µM	3.99 µM	0.545 µM	3.01 µM	1.09 µM	2.76 µM	1.31 µM	2.91 µM			1.06 µM	2.39 µM	1.79 µM	5.36 µM	0.842 µM	2.33 µM				
COC(=O)C(CC(=O)Nc1ccc(C)cc1)C(=O)C(=O)Nc1ccccc1C(C)C (stereo unspecified)				> 100 µM		> 100 µM				> 100 µM		> 100 µM		> 100 µM				> 100 µM		> 100 µM
COc1ccc(/C=C\c2cc(OC)c(O[Si](C)(C)C(C)(C)C)c(OC)c2)cc1				83.3 µM		> 100 µM				> 100 µM		43.4 µM		42.2 µM				> 100 µM		65.2 µM
COC(=O)c1nc(Cl)nc(Cl)c1Cl		85 µM		63.6 µM		45.9 µM		42.9 µM		16.8 µM		56.9 µM		> 100 µM		34.9 µM		> 100 µM		
CCC1=NC(CO)[C@H](c2ccccc2)O1 (stereo partly specified)				> 100 µM		> 100 µM				> 100 µM		> 100 µM		> 100 µM				> 100 µM		> 100 µM
CC(=O)NC(CCCCNC(=O)NCCCl)C(=O)NCc1ccccc1 (stereo unspecified)				> 100 µM		> 100 µM				> 100 µM		> 100 µM		> 100 µM				> 100 µM		> 100 µM
N#CCCN(CCC#N)c1ccc(C(Sc2ccccc2)C(NC(=O)c2cc([N+](=O)[O-])ccc2Cl)C(=O)Sc2ccccc2)cc1 (stereo unspecified)				5.66 µM		22 µM			2.14 µM	8.36 µM and 7.63 µM	3.24 µM	7.06 µM and 14.2 µM		4.15 µM and 6.01 µM			2.84 µM	13.5 µM		4.64 µM
Nc1ccccc1C#C/C=C\C#Cc1ccccc1[N+](=O)[O-]	4.99 µM	> 100 µM	4.58 µM	> 100 µM			2.61 µM	14.6 µM	4.03 µM	37 µM	15.4 µM	34.8 µM	3.72 µM	18.9 µM	6.82 µM	> 100 µM	12.4 µM	38.5 µM	12.9 µM	34.7 µM
Cc1cccc(C)c1NC(=O)C1C(=O)N(c2c(C)cccc2C)C(=O)/C1=N\NC(N)=S (stereo unspecified)				> 100 µM		> 100 µM				> 100 µM		> 100 µM		> 100 µM				> 100 µM		> 100 µM
